This note sets out measurements from patent US9642865B2, “Angiogenesis inhibitors” (THE JOHNS HOPKINS UNIVERSITY, priority 2004, dated 2017).

The structures appear in SMILES notation.

The test system of assay [1] is Jurkat T cells. As to the kind of experiment: Jurkat T-cell proliferation, [3H]-thymidine incorporation. The format is cell-based. On the procedure:
(§1) 32,000 FDA drug approvals obtained by Freedom of Information Act requests were condensed to 3,400 unique drug formulations. Drugs were purchased from Sigma, Spectrum Chemicals, MP Biomedicals, The Johns Hopkins Hospital pharmacy, Biomol, and Tocris. 10 mM stock solutions were made using DMSO, water, or ethanol as solvents. Drugs were arrayed in 96-well plates and screened at a final concentration of 10 μM. Cells were incubated with drug for 36 h and proliferation was measured by pulsing with 1 μCi [^3H]-thymidine for 8 h followed by absorption onto glass filters and scintillation counting.
(§2) IC50 measurements were carried out in triplicate, and analyzed using four parameter logarithmic analysis. Values are presented+/−the standard error of the mean. P-values were calculated using the Student's T-test.
MPA is an immunosuppressive drug widely used to prevent rejection of transplanted organs (Lipsky, J. J. (1996) Lancet 348, 1357-1359). The mechanism of action in the immune system is well established-MPA inhibits de novo biosynthesis of purines in T and B lymphocytes (Allison, A. C. & Eugui, E. M. (2000) Immunopharmacology 47, 85-118). […] Thus, a comparison of HUVEC to Jurkat T cells for sensitivity to MPA in the presence and absence of guanine was carried out. […] Addition of guanine at or above 20 μM rendered Jurkat T cells resistant to MPA. […]
On the technique in general: Uptake of a labelled nucleoside into DNA is a usual measure of proliferation.

The subject of assay [2] is HUVEC. The experiment in a line: Cell cycle analysis of HUVEC. In kind it is cell-based, human. The note with it: 1 μM MPA + 50 μM guanosine. The source says:
It has been shown that MPA causes cell cycle arrest in activated T and B lymphocytes at G1 (Laliberte, J., Yee, A., Xiong, Y. & Mitchell, B. S. (1998) Blood 91, 2896-2904). Therefore, the effect of MPA on endothelial cell cycle progression was examined.

The test system of assay [3] is human umbilical vein endothelial cells (HUVEC). As to the kind of experiment: HUVEC proliferation, [3H]-thymidine incorporation. The format is cell-based. The note with it: guanine 10 μM and 20 μM. The procedure:
as §1, §2
A library of 1,850 FDA-approved drugs and 600 drugs that entered the clinic via approval in a foreign country or phase II clinical trials was created. To discover new angiogenesis inhibitors among known drugs, the library was screened for inhibition of human umbilical vein endothelial cells (HUVEC) using [^3H]-thymidine incorporation. […] After eliminating known cytotoxic drugs such as taxol and colchicine or drugs that are restricted to topical use, several drugs remained. […]

On to `COc1c(C)c2c(c(O)c1C/C=C(\C)CCC(=O)O)C(=O)OC2` [MPA, 6-(4-hydroxy-6-methoxy-7-methyl-3-oxo-1,3-dihydroisobenzofuran-5-yl)-4-methyl-hex-4-enoic acid], for which the “effect of exogenous guanine on MPA inhibition of Jurkat T-cell proliferation” value was “unaffected” in assay [1] (guanine 10 μM); “completely reversed” in assay [1] (guanine 20 μM and 50 μM). Besides, the “effect of guanosine on the cell cycle effect of MPA” value in assay [2] is “completely reversed”. For the same compound, in assay [3], the “effect of exogenous guanine on MPA inhibition of HUVEC proliferation” value is reported as “partially reversed”.
